Seven compounds from US20150307520A1, “NOVEL HETEROARYL AND HETEROCYCLE COMPOUNDS, COMPOSITIONS AND METHODS THEREOF” (HUTCHISON MEDIPHARMA LIMITED, priority 2012, published 2015) can be followed below.

One experiment deals with p110δ/p85α (Homo sapiens, UniProt O00329). The experiment can be described thus: Transcreener KINASE Assay, kinase inhibition of p110δ/p85α. It is filed as biochemical. The settings on record: for PI3Kδ IH % @ 1 uM: 1 uM test compound; for IC50: read-out: PI3Kδ IC50. Put shortly: (§1)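 Recombinant human PI3K heterodimers (p110/p85α) incubated with compound (2% DMSO final) in HEPES/NaCl/EGTA/CHAPS/MgCl2/DTT buffer with 30 uM PIP2 and 10 uM ATP (as added) for 80 min at room temperature.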
Sequence of p110δ/p85α (O00329 whole entry): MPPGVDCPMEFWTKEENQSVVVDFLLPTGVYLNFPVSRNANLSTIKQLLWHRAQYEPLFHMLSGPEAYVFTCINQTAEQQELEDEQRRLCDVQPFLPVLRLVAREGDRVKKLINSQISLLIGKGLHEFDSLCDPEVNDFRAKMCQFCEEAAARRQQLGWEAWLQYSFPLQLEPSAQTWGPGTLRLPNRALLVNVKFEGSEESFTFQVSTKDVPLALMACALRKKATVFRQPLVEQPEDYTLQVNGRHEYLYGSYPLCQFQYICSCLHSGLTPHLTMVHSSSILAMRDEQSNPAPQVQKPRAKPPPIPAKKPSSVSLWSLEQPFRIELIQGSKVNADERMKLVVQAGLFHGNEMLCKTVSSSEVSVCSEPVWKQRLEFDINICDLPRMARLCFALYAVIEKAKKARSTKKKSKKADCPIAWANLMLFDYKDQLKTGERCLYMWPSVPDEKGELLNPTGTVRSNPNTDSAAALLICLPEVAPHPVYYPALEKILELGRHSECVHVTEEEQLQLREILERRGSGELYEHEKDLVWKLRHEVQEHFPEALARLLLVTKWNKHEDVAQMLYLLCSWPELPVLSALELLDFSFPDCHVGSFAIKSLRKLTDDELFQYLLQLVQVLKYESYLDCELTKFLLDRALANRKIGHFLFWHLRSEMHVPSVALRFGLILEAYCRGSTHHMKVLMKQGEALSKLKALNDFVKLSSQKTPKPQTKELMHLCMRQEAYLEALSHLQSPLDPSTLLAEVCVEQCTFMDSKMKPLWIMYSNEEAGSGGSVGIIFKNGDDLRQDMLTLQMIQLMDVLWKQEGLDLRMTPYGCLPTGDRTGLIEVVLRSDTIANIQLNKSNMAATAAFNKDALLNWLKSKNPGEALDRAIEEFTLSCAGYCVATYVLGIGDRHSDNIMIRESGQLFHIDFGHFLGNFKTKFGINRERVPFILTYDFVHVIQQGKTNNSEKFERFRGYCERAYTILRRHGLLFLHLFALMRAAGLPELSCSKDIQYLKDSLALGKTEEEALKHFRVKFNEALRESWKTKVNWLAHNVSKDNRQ
Sequence of p110δ/p85α (P27986 whole entry partner): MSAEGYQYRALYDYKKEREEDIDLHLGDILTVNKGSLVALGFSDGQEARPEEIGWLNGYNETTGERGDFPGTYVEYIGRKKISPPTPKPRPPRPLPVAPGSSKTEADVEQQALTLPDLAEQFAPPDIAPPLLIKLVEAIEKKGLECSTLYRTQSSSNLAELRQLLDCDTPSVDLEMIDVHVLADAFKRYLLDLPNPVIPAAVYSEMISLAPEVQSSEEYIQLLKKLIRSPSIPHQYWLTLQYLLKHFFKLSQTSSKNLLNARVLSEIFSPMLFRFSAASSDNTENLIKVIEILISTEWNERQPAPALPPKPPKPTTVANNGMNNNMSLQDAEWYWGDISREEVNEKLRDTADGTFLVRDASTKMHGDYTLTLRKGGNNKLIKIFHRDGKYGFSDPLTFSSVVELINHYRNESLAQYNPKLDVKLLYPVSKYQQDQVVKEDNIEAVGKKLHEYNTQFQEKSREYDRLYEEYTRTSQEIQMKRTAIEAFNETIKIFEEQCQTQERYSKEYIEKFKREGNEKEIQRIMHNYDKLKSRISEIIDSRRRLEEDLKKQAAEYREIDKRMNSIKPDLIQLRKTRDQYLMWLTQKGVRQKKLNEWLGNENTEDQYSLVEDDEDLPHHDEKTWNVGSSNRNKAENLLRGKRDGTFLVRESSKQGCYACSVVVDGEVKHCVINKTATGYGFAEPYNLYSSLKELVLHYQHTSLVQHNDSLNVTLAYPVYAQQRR

Another experiment has as its target p110α/p85α (Homo sapiens, UniProt P42336). The experiment is described as follows: Transcreener KINASE Assay, kinase inhibition of p110α/p85α. The experiment is classed as biochemical. The following applies: read-out: PI3Kα IC50. The essentials:
as §1

The target of a further experiment is p110β/p85α (Homo sapiens, UniProt P42338). The experiment can be described thus: Transcreener KINASE Assay, kinase inhibition of p110β/p85α. The experiment is classed as biochemical. The following applies: for PI3Kβ IH % @ 1 uM: 1 uM test compound; for IC50: read-out: PI3Kβ IC50. The essentials:
as §1

In the next experiment the target is p110γ (Homo sapiens, UniProt P48736). The experiment is described as follows: Transcreener KINASE Assay, kinase inhibition of p110γ. It is filed as biochemical. The following applies: for PI3Kγ IH % @ 1 uM: 1 uM test compound; for IC50: read-out: PI3Kγ IC50. Put shortly: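 Kinase activity is monitored as ADP formation, detected by competitive fluorescence polarization with a far-red tracer. Recombinant isoform complexes react for 80 min at room temperature before a 60 min detection step. IC50 values come from fitted dose-response data.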

In a further experiment the target is PI3Kγ (Mus musculus, UniProt Q9JHG7). The experiment can be described thus: Acumen Assay - Raw264.7 p-AKT Assay (C5a stimulated). The settings on record: Raw264.7 macrophage cells, compound 30 min, stimulated with 10 nM C5a for 5 min, p-AKT (Ser473) readout; read-out: PI3Kγ cell-C5a Raw264.7 IC50. The experiment is classed as cell-based. The protocol:
Acumen Assay—Raw264.7 p-AKT Assay
Acumen® eX3 (A Multilaser Microplate Cytometer For Enhanced High Content Screening): TTP LabTech
3×10^4 Raw264.7 macrophage cells were seeded into 96-well plates with DMEM+10% heat-inactivated FBS at […], 90 ul/well, overnight. After starvation for 3 hr at 37° C. under 5% CO2, Raw264.7 cells were treated with 10 ul/well various concentrations of compound or 0.5% DMSO for 30 min, and then stimulated with 10 ul/well 10 nM C5a for 5 min.
1.) Cells were fixed 110 μL of 4% pre-warmed Paraformaldehyde (2% final), incubate for 45 min at room temperature. 2.) Remove paraformaldehyde solution. Add 100 μL of ice-cold 0.1% Triton X-100 in PBS and leave at 4° C. for 30 min. 3.) Wash once in 100 μL PBS. 4.) Incubate with 100 μL blocking buffer (1% BSA, in PBS) for 2 hours at room temperature. 5.) Wash once for 5 min with 100 ul PBS. 6.) Incubate with 40 μL 1:200 dilution of phospho AKT (Ser473) rabbit antibody in antibody dilution buffer (0.1% BSA, in PBS) overnight at 4° C. 7.) Wash for 3 times for 10 min with 100 ul PBS. 8.) Incubate for 90 min at room temperature with 50 μL of goat anti-rabbit Alex488 antibody at a 1:1,000 dilution in antibody dilution buffer (0.1% BSA, in PBS). Cover plate in foil to keep out of light. 9.) Wash for 3 times for 10 min with 100 μL PBS. 10.) Add 50 μL of 1.5 μM Propidium Iodide solution to each well to determine cell number at a 1:1,000 dilution in PBS (stock: 1.5 mM). 11.) Incubate at room temperature for 30 min. 12.) Seal the plate with a black cover-seal (supplied with plate). 13.) Load the plate into the Acumen Explorer and scan with the appropriate instrument settings.

The IC50 is the concentration that inhibits the measured activity by half.

Sequence of p110α/p85α (P42336 whole entry): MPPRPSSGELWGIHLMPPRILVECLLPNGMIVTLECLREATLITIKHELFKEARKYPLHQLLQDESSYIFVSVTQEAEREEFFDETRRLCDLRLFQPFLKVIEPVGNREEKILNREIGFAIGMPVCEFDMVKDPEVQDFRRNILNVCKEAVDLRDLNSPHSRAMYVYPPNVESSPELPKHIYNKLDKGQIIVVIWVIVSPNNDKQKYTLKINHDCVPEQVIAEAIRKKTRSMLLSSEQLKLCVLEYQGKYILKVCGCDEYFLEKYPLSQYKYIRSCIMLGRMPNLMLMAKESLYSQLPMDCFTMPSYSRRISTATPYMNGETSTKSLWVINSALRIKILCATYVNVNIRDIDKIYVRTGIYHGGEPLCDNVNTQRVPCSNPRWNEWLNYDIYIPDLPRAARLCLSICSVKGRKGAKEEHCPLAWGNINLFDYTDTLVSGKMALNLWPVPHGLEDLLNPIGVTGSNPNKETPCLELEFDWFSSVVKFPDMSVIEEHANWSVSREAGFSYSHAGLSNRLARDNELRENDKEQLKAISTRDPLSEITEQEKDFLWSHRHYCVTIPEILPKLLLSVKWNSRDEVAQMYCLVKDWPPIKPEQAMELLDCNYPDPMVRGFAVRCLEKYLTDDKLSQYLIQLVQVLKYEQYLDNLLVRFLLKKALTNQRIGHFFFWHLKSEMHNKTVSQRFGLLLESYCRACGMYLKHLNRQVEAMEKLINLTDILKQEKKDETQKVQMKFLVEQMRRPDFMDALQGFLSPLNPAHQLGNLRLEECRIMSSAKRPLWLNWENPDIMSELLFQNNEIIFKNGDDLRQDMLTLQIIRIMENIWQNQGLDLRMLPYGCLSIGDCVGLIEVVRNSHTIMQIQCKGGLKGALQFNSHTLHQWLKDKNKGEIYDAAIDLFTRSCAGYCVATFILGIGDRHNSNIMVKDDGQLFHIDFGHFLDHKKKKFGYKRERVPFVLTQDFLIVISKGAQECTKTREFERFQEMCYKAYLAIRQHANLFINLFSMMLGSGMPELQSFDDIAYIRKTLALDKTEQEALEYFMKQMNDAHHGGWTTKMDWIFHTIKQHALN
Sequence of p110α/p85α (P27986 whole entry partner): as the sequence (P27986 whole entry partner) above
Sequence of p110β/p85α (P42338 whole entry): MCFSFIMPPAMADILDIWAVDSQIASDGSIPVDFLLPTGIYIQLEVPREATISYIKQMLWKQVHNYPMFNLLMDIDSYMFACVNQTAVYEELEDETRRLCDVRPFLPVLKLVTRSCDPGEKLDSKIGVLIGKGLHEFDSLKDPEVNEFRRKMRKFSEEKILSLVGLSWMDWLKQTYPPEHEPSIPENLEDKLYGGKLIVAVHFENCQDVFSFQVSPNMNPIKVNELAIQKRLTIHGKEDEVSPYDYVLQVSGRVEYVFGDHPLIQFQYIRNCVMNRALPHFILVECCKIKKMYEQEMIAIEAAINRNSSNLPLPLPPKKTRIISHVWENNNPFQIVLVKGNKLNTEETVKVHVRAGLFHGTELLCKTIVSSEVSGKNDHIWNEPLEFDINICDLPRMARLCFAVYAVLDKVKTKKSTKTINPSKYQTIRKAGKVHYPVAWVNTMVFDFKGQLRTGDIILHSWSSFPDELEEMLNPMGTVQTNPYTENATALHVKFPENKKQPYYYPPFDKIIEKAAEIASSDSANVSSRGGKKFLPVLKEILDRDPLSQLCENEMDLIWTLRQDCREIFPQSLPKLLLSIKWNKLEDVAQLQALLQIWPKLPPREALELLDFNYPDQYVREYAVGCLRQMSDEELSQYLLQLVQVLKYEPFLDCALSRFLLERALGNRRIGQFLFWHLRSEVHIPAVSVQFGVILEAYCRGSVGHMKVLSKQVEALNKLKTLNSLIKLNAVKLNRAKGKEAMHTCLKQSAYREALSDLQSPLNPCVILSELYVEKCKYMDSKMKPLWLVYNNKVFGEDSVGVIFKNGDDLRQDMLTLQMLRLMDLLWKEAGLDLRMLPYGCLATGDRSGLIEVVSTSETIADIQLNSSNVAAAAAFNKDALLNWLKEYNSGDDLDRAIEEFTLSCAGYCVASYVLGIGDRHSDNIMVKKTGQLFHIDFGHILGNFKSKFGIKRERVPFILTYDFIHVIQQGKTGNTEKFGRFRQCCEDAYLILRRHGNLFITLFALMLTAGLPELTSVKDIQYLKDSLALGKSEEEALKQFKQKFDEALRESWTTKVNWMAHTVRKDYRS
Sequence of p110β/p85α (P27986 2-724 partner): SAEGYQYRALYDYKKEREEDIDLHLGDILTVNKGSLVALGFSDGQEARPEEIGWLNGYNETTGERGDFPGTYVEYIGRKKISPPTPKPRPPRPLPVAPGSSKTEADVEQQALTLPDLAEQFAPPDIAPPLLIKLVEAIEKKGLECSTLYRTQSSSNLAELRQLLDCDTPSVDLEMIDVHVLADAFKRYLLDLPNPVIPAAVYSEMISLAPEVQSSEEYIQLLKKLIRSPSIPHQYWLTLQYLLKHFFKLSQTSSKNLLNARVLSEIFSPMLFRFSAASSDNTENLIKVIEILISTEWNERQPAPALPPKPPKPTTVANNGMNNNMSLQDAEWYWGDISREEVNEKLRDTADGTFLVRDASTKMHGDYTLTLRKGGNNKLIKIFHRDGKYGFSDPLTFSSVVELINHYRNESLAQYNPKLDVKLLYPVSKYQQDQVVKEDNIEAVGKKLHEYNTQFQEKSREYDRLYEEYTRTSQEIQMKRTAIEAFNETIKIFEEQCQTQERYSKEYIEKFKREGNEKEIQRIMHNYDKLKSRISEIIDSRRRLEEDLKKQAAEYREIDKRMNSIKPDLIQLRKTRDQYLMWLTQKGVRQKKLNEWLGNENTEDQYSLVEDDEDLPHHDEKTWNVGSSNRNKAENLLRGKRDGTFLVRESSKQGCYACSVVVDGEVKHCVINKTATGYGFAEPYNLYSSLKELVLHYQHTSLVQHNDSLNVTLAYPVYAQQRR

As to `CC(=O)c1cnc(N)nc1N1C[C@H](C)[C@H]1c1nn2ccc(Cl)c2c(=O)n1-c1ccccn1` [Compound 473], the “PI3Kδ IH % @ 1 uM” value on p110δ/p85α is reported as more than 100%. For the same compound, the IC50 is 2 nM at p110δ/p85α; 921 nM at p110α/p85α; 454 nM on p110β/p85α; 10 nM on p110γ; 36 nM on PI3Kγ. In addition, the “PI3Kβ IH % @ 1 uM” value at p110β/p85α was 67.3%. In addition, at p110γ, the “PI3Kγ IH % @ 1 uM” value was found to be 97.0%.
Take `C[C@H]1CN(c2nc(N)nc(N)c2C#N)[C@@H]1c1nn2ccc(Cl)c2c(=O)n1-c1ccc(F)cc1` [Compound 480]: on p110δ/p85α, the “PI3Kδ IH % @ 1 uM” value was more than 100%. Besides, the IC50 was 3 nM on p110δ/p85α; 648 nM at p110α/p85α; 81 nM on p110β/p85α; 2 nM at p110γ; 11 nM at PI3Kγ. The “PI3Kβ IH % @ 1 uM” value at p110β/p85α turned out to be 93.6%. Also, the “PI3Kγ IH % @ 1 uM” value on p110γ is more than 100%.
As for `C[C@H]1CN(c2nc(N)nc(N)c2C#N)[C@@H]1c1nn2ccc(Cl)c2c(=O)n1-c1ccccc1` [Compound 481], the “PI3Kδ IH % @ 1 uM” value on p110δ/p85α is listed as more than 100%. The IC50 on p110δ/p85α turned out to be 1 nM; at p110α/p85α, 558 nM; at p110β/p85α it was 78 nM; at p110γ it was 3 nM; at PI3Kγ it was 14 nM. Besides, the “PI3Kβ IH % @ 1 uM” value at p110β/p85α is reported as 92.0%. Besides, the “PI3Kγ IH % @ 1 uM” value at p110γ is listed as more than 100%.
As for `CC(=O)c1cnc(N)nc1N1C[C@H](C)[C@H]1c1nn2ccc(C(F)(F)F)c2c(=O)n1-c1ccccc1` [Compound 489], on p110δ/p85α, the “PI3Kδ IH % @ 1 uM” value is listed as more than 100% and the IC50 turned out to be 3 nM. For the same compound, on p110β/p85α, the “PI3Kβ IH % @ 1 uM” value came out at 63.6% and the IC50 was 296 nM. For the same compound, at p110γ, the “PI3Kγ IH % @ 1 uM” value is more than 100% and the IC50 stood at 8 nM. Moreover, the IC50 at PI3Kγ was found to be 23 nM.
With `CC(=O)c1c(N)nc(N)nc1N1CCC1c1nn2ccc(Cl)c2c(=O)n1-c1ccccc1` (stereo not drawn) [Compound 492], at p110δ/p85α, the “PI3Kδ IH % @ 1 uM” value is on record as 97.73% and the IC50 worked out at 30 nM. Also, the “PI3Kβ IH % @ 1 uM” value on p110β/p85α was 50.7%. Besides, on p110γ, the “PI3Kγ IH % @ 1 uM” value is recorded as more than 100% and the IC50 is 12 nM. Also, on PI3Kγ, the IC50 came to 12 nM.
For the compound `CC(=O)c1c(N)nc(N)nc1N1C[C@H](C)C1c1nn2ccc(Cl)c2c(=O)n1-c1cccc(F)c1` (stereo partly drawn) [Compound 493], at p110δ/p85α, the “PI3Kδ IH % @ 1 uM” value was 99.7% and the IC50 was found to be 6 nM. At p110β/p85α, the “PI3Kβ IH % @ 1 uM” value is listed as 73.6% and the IC50 came to 250 nM. For the same compound, on p110γ, the “PI3Kγ IH % @ 1 uM” value was more than 100% and the IC50 turned out to be 8 nM. For the same compound, the IC50 at PI3Kγ worked out at 8 nM.
Consider `Cc1cc(Cl)c2c(=O)n(-c3ccccc3)c([C@@H]3CCN3c3ncnc4[nH]cnc34)nn12` [Compound 496], for which the “PI3Kδ IH % @ 1 uM” value on p110δ/p85α was found to be 34.2%. For the same compound, the “PI3Kβ IH % @ 1 uM” value at p110β/p85α was found to be 18.3%. The “PI3Kγ IH % @ 1 uM” value at p110γ was determined as 17.2%. Moreover, the IC50 at PI3Kγ was 2 nM.
